Laboratory results published in ChEMBL document CHEMBL6096733, “Structure-Based Virtual Screening Identifies 2-Arylthiazole-4-Carboxylic Acids as a Novel Class of Nanomolar Affinity Ligands for the CaMKIIα Hub Domain” (J Med Chem, 2025).

Key:
[1] = biological target: T1, Calcium/calmodulin-dependent protein kinase type II subunit alpha (Rattus norvegicus, UniProt P11275); test: Inhibition of […] binding to CaMKIIalpha in rat brain cortical membrane assessed as inhibition constant incubated for 1 hrs by TopCount NXT microplate scintillation counter analysis; assay type: cell membranes, Cortex; settings: read-out: Ki
T1 sequence (P11275 whole entry): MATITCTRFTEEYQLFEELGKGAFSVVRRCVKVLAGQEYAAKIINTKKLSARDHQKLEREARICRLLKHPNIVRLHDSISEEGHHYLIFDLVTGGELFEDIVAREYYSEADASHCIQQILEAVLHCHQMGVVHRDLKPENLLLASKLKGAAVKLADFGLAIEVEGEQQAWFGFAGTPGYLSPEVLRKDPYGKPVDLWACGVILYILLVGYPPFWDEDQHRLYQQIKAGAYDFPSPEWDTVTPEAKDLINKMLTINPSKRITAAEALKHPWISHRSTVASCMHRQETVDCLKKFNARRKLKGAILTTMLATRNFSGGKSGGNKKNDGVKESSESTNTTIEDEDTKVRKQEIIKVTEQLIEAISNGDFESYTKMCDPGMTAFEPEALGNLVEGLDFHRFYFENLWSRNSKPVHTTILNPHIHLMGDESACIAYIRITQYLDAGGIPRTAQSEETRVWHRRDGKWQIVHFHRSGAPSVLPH

[2] = biological target: T1, Calcium/calmodulin-dependent protein kinase type II subunit alpha; test: Inhibition of [3H]NCS-382 binding to CaMKIIalpha in rat brain cortical membrane assessed as inhibition constant incubated for 1 hrs by TopCount NXT microplate scintillation counter analysis; assay type: cell membranes, Cortex
[3] = Drug concentration in mouse plasma at 10 mg/kg, po measured after 0.5 hrs by LC-MS/MS analysis; assay type: ADME, organism-based
[4] = Drug concentration in mouse brain at 10 mg/kg, po measured after 0.5 hrs by LC-MS/MS analysis; assay type: ADME, organism-based; settings: read-out: Ct
[5] = Ratio of drug concentration in mouse brain to plasma at 10 mg/kg, po measured after 0.5 hrs by LC-MS/MS analysis; assay type: ADME, organism-based; settings: brain and plasma, read-out: BPR
[6] = Ratio of unbound brain to plasma drug concentration in mouse at 10 mg/kg, po measured after 0.5 hrs by LC-MS/MS analysis; assay type: ADME, organism-based; settings: brain and plasma, read-out: K(p,uu,brain)
[7] = Prodrug conversion in mouse plasma assessed as 2-(2,6-dichlorophenyl)thiazole-4-carboxylic acid concentration at 10 mg/kg, po measured after 0.5 hrs by LC-MS/MS analysis; assay type: ADME, organism-based; settings: in vivo
[8] = Prodrug conversion in mouse brain assessed as 2-(2,6-dichlorophenyl)thiazole-4-carboxylic acid concentration at 10 mg/kg, po measured after 0.5 hrs by LC-MS/MS analysis; assay type: ADME, organism-based; settings: in vivo
[9] = Prodrug conversion in mouse assessed as ratio of 2-(2,6-dichlorophenyl)thiazole-4-carboxylic acid concentration in brain to plasma at 10 mg/kg, po measured after 0.5 hrs by LC-MS/MS analysis; assay type: ADME, organism-based
[10] = Prodrug conversion in mouse assessed as ratio of unbound 2-(2,6-dichlorophenyl)thiazole-4-carboxylic acid concentration in brain to plasma at 10 mg/kg, po measured after 0.5 hrs by LC-MS/MS analysis; assay type: ADME, organism-based
[11] = Metabolic stability in pooled CD-1 mouse liver microsomes assessed as parent compound remaining at 10 uM measured immediately in presence of NADPH regeneration system by LC-MS analysis; assay type: ADME, Microsome; settings: read-out: Stability
[12] = Metabolic stability in pooled CD-1 mouse liver microsomes assessed as parent compound remaining at 10 uM measured after 15 mins in presence of NADPH regeneration system by LC-MS analysis; assay type: ADME, Microsome; settings: read-out: Stability
[13] = Metabolic stability in pooled CD-1 mouse liver microsomes assessed as parent compound remaining at 10 uM measured after 30 mins in presence of NADPH regeneration system by LC-MS analysis; assay type: ADME, Microsome; settings: read-out: Stability
[14] = Metabolic stability in pooled CD-1 mouse liver microsomes assessed as parent compound remaining at 10 uM measured after 60 mins in presence of NADPH regeneration system by LC-MS analysis; assay type: ADME, Microsome; settings: read-out: Stability
[15] = Metabolic stability in pooled human plasma assessed as parent compound remaining at 20 uM measured immediately by LC-MS analysis; assay type: ADME, cell-free; settings: read-out: Stability
[16] = Metabolic stability in pooled human plasma assessed as parent compound remaining at 20 uM measured after 30 mins by LC-MS analysis; assay type: ADME, cell-free; settings: read-out: Stability
[17] = Metabolic stability in pooled human plasma assessed as parent compound remaining at 20 uM measured after 60 mins by LC-MS analysis; assay type: ADME, cell-free; settings: read-out: Stability
[18] = Metabolic stability in pooled human plasma assessed as parent compound remaining at 20 uM measured after 120 mins by LC-MS analysis; assay type: ADME, cell-free; settings: read-out: Stability
[19] = Chemical stability of compound in phosphate buffer solution at pH 7.4; assay type: physicochemical
[20] = Prodrug conversion in mouse plasma assessed as 2-(2,6-dichlorophenyl)thiazole-4-carboxylic acid release at 10 mg/kg, po measured after 0.5 hrs by LC-MS/MS analysis; assay type: ADME, organism-based; settings: in vivo
[21] = Prodrug conversion in mouse brain assessed as 2-(2,6-dichlorophenyl)thiazole-4-carboxylic acid release at 10 mg/kg, po measured after 0.5 hrs by LC-MS/MS analysis; assay type: ADME, organism-based; settings: in vivo

`O=C(O)c1csc(CCc2ccccc2)n1` gave a Ki [1] of 2.6 µM.

With `O=C(O)c1csc(-c2ccc(Cl)c(Cl)c2)n1` the Ki [1] was 1.6 µM.

In the case of `COc1ccc(-c2nc(C(=O)O)cs2)cc1`, the Ki [1] is reported as 7.2 µM.

`O=C(O)c1csc(-c2ccc(C(F)(F)F)cc2)n1` showed a Ki ([2]; read-out: Ki) of 10300 nM.

`O=C(O)c1csc(-c2ccc(O)cc2)n1` gave a Ki [1] of 12.6 µM.

In the case of `O=C(O)c1csc(/C=C/c2ccccc2)n1`, the Ki [1] is reported as 3.2 µM.

Molecule `O=C(O)c1cnc(-c2ccccc2)s1` has a Ki [1] of over 100 µM.

For `O=C(O)Cc1csc(-c2ccccc2Cl)n1`, the Ki [1] was 2 µM.

`O=C(O)c1csc(-c2ccncc2)n1` gave a Ki [1] of 60.2 µM.

For `O=C(O)c1csc(-c2ccccc2Cl)n1`, the Ki [1] was 1 µM.

With `COc1cccc(-c2nc(C(=O)O)cs2)c1` the Ki [1] was 9.9 µM.

In the case of `CCc1ccc(-c2nc(C(=O)O)cs2)cc1`, the Ki [1] is reported as 5.4 µM.

Work on `CC(C)(C)OC(=O)c1csc(-c2c(Cl)cccc2Cl)n1` yielded a Ki [1] of 56.4 µM, a concentration at 0.5 h [3] of 137 ng/mL and a concentration at 0.5 h [4] of 627 ng/g. It also gave a Kp at 0.5 h [5] of 4.7, a Kp uu at 0.5 h [6] of 0.49 and a Cp [7] of 2154 ng/mL. For the same molecule, the Ct [8] was 54 ng/g, the BPR [9] was 0.03 and the “K(p,uu,brain)” value [10] was 0.13. For the same molecule, the remaining at 0 min, 10 µM [11] was 100%, the remaining at 0.25 h, 10 µM [12] was 70% and the remaining at 0.5 h, 10 µM [13] was 53%. For the same molecule, the remaining at 1 h, 10 µM [14] was 45%, the remaining at 0 min, 20 µM [15] was 100% and the remaining at 0.5 h, 20 µM [16] was 78%. The remaining at 1 h, 20 µM [17] was 74%, the remaining at 2 h, 20 µM [18] was 70% and the Stability [19] was “Unstable”.

For `O=C(O)c1csc(-c2ccccc2Br)n1`, the Ki ([2]; read-out: Ki) was 180 nM and the Ki ([2]; read-out: pKi (converted)) was 158 nM.

Work on `O=C(O)c1csc(-c2ccccc2I)n1` yielded a Ki ([2]; read-out: Ki) of 160 nM.

`OC1(c2nc(-c3c(Cl)cccc3Cl)cs2)COC1` gave a Ki [1] of over 100 µM.

Work on `O=C(O)c1csc(-c2cccc3ccccc23)n1` yielded a Ki [1] of 0.22 µM.

`O=C(O)c1csc(-c2ccccc2O)n1` showed a Ki ([2]; read-out: Ki) of 8000 nM.

For `CC(C)(C)COC(=O)c1csc(-c2c(Cl)cccc2Cl)n1`, the Ki [1] was over 100 µM, the remaining at 0 min, 10 µM [11] was 100% and the remaining at 0.25 h, 10 µM [12] was 84%. The remaining at 0.5 h, 10 µM [13] was 75%, the remaining at 1 h, 10 µM [14] was 59% and the remaining at 0 min, 20 µM [15] was 100%. For the same molecule, the remaining at 0.5 h, 20 µM [16] was 75%, the remaining at 1 h, 20 µM [17] was 65% and the remaining at 2 h, 20 µM [18] was 63%. The Stability [19] was “Unstable”, the Drug metabolism [20] was “metabolite_notdetected” and the Drug metabolism [21] was “metabolite_notdetected”.

Molecule `O=C(Nc1nc(C(=O)O)cs1)c1ccccc1` has a Ki ([2]; read-out: Ki) of over 100000 nM.

With `O=C(O)Cc1csc(-c2cccc3ccccc23)n1` the Ki [1] was 9.9 µM.
